Assay results published in US12590099B2, “Inhibitors of histone deacetylase useful for the treatment or prevention of HIV infection” (Merck Sharp & Dohme LLC, priority 2018, dated 2026).
Where two headings read alike, the source gives them in different places.

How the values were obtained:
[1] = biological target: T1, Recombinant human HDAC3/SMRT heterodimer (Homo sapiens, UniProt O15379); assay: Human HDAC enzyme inhibitor Fluor-de-Lys assay, HDAC3/SMRT; type: biochemical; conditions: recombinant human HDAC3/SMRT, Fluor-de-Lys assay
T1 construct: FLAG (C); made in house
T1 sequence (O15379 whole entry): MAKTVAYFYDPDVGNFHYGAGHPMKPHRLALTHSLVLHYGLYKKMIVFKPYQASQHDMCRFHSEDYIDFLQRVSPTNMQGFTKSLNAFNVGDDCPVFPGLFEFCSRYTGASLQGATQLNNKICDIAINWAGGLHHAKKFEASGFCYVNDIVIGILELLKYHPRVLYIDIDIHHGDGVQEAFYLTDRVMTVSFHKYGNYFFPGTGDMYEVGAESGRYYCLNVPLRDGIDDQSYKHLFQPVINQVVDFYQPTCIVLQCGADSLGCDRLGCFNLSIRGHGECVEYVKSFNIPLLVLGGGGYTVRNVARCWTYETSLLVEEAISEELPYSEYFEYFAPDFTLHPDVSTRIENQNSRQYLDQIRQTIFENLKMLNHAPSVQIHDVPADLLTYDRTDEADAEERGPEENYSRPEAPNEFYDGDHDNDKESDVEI
T1 sequence (Q9Y618 1-899 partner limits assumed): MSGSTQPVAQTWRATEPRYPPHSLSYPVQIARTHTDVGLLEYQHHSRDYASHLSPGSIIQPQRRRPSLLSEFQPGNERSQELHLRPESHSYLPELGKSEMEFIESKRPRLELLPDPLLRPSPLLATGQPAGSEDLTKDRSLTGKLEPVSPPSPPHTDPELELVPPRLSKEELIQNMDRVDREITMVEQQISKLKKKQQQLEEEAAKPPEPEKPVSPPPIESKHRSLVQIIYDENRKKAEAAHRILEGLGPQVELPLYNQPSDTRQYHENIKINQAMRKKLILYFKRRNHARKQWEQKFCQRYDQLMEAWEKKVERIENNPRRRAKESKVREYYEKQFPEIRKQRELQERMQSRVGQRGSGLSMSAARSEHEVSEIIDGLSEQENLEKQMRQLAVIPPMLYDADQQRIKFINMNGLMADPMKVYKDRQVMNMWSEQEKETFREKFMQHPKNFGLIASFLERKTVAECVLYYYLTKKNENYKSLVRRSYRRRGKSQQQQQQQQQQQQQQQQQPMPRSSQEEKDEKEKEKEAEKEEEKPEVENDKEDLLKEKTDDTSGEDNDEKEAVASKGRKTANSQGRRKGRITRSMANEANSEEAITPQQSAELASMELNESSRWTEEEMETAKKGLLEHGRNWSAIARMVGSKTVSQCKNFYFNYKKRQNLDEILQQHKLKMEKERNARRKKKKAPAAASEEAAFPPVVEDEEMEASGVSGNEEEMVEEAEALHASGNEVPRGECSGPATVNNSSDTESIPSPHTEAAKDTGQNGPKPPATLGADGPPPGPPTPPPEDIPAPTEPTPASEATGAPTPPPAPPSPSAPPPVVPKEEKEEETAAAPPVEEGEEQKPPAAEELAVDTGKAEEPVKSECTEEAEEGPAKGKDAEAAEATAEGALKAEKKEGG

KARN cells (Jurkat 2C4) = assay: cells; type: cell-based; conditions: luciferase induction, 100% = 2 μM SAHA
Method in brief: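 Luminescence (Steady-Glo, 10 min, room temperature) measured next day in KARN Jurkat 2C4 cells given compounds at up to 40 μM final with 0.4% DMSO. Percent activation normalised to DMSO (0%) and 2 μM SAHA (100%), fitted by 4-parameter curve.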

[2] = Homo sapiens, Jurkat, read-out: Karn EC50 (nM) 0.1% NHS, 0.1% normal human serum
[3] = Homo sapiens, Jurkat, read-out: Karn EC50 (nM) 5% NHS, 5% normal human serum
[4] = read-out: Karn EC50 (nM) 0.1% NHS, 0.1% normal human serum
[5] = read-out: Karn EC50 (nM) 5% NHS, 5% normal human serum

SMILES | IC50 [1] [nM] | EC50 (KARN cells (Jurkat 2C4); [2]) [nM] | EC50 (KARN cells (Jurkat 2C4); [3]) [nM] | EC50 (KARN cells (Jurkat 2C4); [4]) [nM] | EC50 (KARN cells (Jurkat 2C4); [5]) [nM]
CCC(=O)CCCCC[C@H](NC(=O)[C@H]1CC12CCN(CC1CC1)CC2)c1ncc(-c2cc3ccc(C)nc3cc2OC)o1 [Compound 422] | 0.08 | 15 | 10 | – | –
CCC(=O)CCCCC[C@H](NC(=O)[C@H]1CC[C@]2(CC1)OC(=O)c1ccncc12)c1ncc(-c2ccccc2)[nH]1 [Compound 376] | 9.02 | 1860 | 3680 | – | –
CCC(=O)CCCCC[C@H](NC(=O)C1CC12CCOCC2)c1ncc(-c2cc3ccc(C)nc3cc2OC)[nH]1 (single isomer, unassigned) [Compound 413] | 61.9 | – | – | 348 | 1270
CCC(=O)CCCCC[C@H](NC(=O)[C@H]1CC[C@]2(CC1)OC(=O)c1cccnc12)c1nnc(-c2cc3ccccc3nc2OC)o1 [Compound 368] | 20.6 | 1570 | 5240 | – | –
CCC(=O)CCCCC[C@H](NC(=O)C1=NOC2(CCN(C)CC2)C1)c1nnc(-c2cc3ccccc3nc2OC)o1 [Compound 370] | 8.87 | 752 | 1430 | – | –
CCC(=O)CCCCC[C@H](NC(=O)C1=NOC2(CCN(S(C)(=O)=O)CC2)C1)c1ncc(-c2ccccc2)[nH]1 [Compound 383] | 16.7 | 2620 | 3260 | – | –
CCC(=O)CCCCC[C@H](NC(=O)C1=NOC2(CCN(C)CC2)C1)c1ncc(-c2ccc(Cl)cc2OC)o1 [Compound 390] | 39.4 | – | – | 674 | 1680
CCC(=O)CCCCC[C@H](NC(=O)[C@H]1CC12CCN(C)CC2)c1ncc(-c2cc3ocnc3cc2F)o1 [Compound 389] | 30.2 | 1120 | 1550 | – | –
CCC(=O)CCCCC[C@H](NC(=O)C1=NOC2(CCN(C(C)=O)CC2)C1)c1ncc(-c2ccccc2)[nH]1 [Compound 380] | 8.92 | 1920 | 2410 | – | –
CCC(=O)CCCCC[C@H](NC(=O)C1CC12CCOCC2)c1ncc(-c2cc3ccc(C)nc3cc2OC)o1 (single isomer, unassigned) [Compound 409] | – | 811 | 1860 | – | –
CCC(=O)CCCCC[C@H](NC(=O)[C@H]1CC[C@]2(CC1)OC(=O)c1ncccc12)c1nnc(-c2cc3ccccc3nc2OC)o1 [Compound 367] | 10.7 | 1330 | 4490 | – | –
CCN[C@@H](CCCCCC(=O)CC)c1ncc(-c2cc3ccc(C)nc3cc2OC)[nH]1 [Compound 403] | 283 | 5340 | 5600 | – | –
CCC(=O)CCCCCC(CC)(NC(=O)[C@H]1CC12CCN(CC1CC1)CC2)c1nc(-c2cc3ccc(C)nc3cc2OC)c[nH]1 (stereo partly drawn) [Compound 420, (1S)-6-(cyclopropylmethyl)-N-{3-[4-(7-methoxy-2-methylquinolin-6-yl)-1H-imidazol-2-yl]-9-oxoundecan-3-yl}-6-azaspiro[2.5]octane-1-carboxamide] | 328 | 11800 | > 40000 | – | –
CCC(=O)CCCCC[C@H](NC(=O)[C@H]1CC12CCN(CC1CC1)CC2)c1ncc(-c2cc3ccc(=O)n(C)c3cc2F)o1 [Compound 400] | – | 577 | 557 | – | –
CCC(=O)CCCCC[C@H](NC(=O)[C@H]1CC[C@@]2(CC1)OC(=O)c1ncccc12)c1ncc(-c2ccccc2)[nH]1 [Compound 374] | 15.8 | 2580 | 5400 | – | –
CCC(=O)CCCCC[C@H](NC(=O)C1=NOC2(CCN(C)CC2)C1)c1ncc(-c2ccc(-c3ccncc3)cc2OC)o1 [Compound 395] | 6.78 | 618 | 725 | – | –
CCC(=O)CCCCC[C@H](NC(=O)C1=NOC2(CCN(C)CC2)C1)c1ncc(-c2cc3ccncc3cc2OC)o1 [Compound 415] | 7.82 | 105 | 118 | – | –
CCC(=O)CCCCCC(N)(COC)c1ncc(-c2cc3ccc(C)nc3cc2OC)[nH]1 (stereo not shown) [Compound 414, 9-amino-10-methoxy-9-[5-(7-methoxy-2-methylquinolin-6-yl)-1H-imidazol-2-yl]decan-3-one] | > 900 | > 40000 | > 40000 | – | –
CCC(=O)CCCCC[C@H](NC(=O)C1=NOC2(CCN(C(C)C)CC2)C1)c1ncc(-c2ccccc2)[nH]1 [Compound 379] | 4.77 | 472 | 771 | – | –
CCC(=O)CCCCC[C@H](NC(=O)[C@H]1CC[C@@]2(CC1)OC(=O)c1cccnc12)c1ncc(-c2ccccc2)[nH]1 [Compound 375] | 19.9 | 1450 | 9330 | – | –
CCC(=O)CCCCC[C@H](NC(=O)[C@H]1CC12CCN(C)CC2)c1ncc(-c2cc3ccncc3cc2OC)o1 [Compound 405] | 0.7 | 65 | 57 | – | –

SMILES | IC50 [1] [nM] | EC50 (KARN cells (Jurkat 2C4); [2]) [nM] | EC50 (KARN cells (Jurkat 2C4); [3]) [nM] | EC50 (KARN cells (Jurkat 2C4); [4]) [nM] | EC50 (KARN cells (Jurkat 2C4); [5]) [nM]
CCC(=O)CCCCC[C@H](NC(=O)C1=NOC2(CCN(C(C)C)CC2)C1)c1nnc(-c2cc3ccccc3nc2OC)o1 [Compound 369] | – | 804 | 1680 | – | –
CCC(=O)CCCCC[C@H](NC(=O)[C@H]1CC[C@]2(CC1)OC(=O)c1cccnc12)c1ncc(-c2ccccc2)[nH]1 [Compound 378] | 7.08 | 1310 | 2990 | – | –
CCC(=O)CCCCC[C@H](NC(=O)C1CC12CCOCC2)c1ncc(-c2cc3ccc(C)nc3cc2OC)[nH]1 (single isomer, unassigned) [Compound 407] | 3.68 | 336 | 977 | – | –
CCC(=O)CCCCC[C@H](NC(=O)[C@H]1CC12CCN(C)CC2)c1ncc(-c2cc3ocnc3cc2OC)o1 [Compound 408] | 7.37 | 250 | 593 | – | –
CCC(=O)CCCCC[C@H](NC(=O)C1=NOC2(CCN(C)CC2)C1)c1ncc(-c2ccccc2)[nH]1 [Compound 382] | 8.02 | 665 | 1070 | – | –
CCC(=O)CCCCC[C@H](NC(=O)[C@H]1CC12CCN(CC1CC1)CC2)c1ncc(-c2ccc3nc(C)ccc3c2)[nH]1 [Compound 393] | 0.05 | 21 | 22 | – | –
CCC(=O)CCCCCC(NC(=O)C1CCC2(CC1)OC(=O)c1ncccc12)c1nnc(-c2cc3ccccc3nc2OC)o1 (stereo not shown) [Compound 365] | 23.2 | 1550 | 3830 | – | –
CCC(=O)CCCCC[C@H](NC(=O)C1CC12CCOCC2)c1ncc(-c2cc3ccc(C)nc3cc2OC)o1 (single isomer, unassigned) [Compound 410] | – | – | – | 663 | 1390
CCC(=O)CCCCC[C@H](NC(=O)C1=NOC2(CCN(C)CC2)C1)c1ncc(-c2cc3ccc(N(C)C)nc3cc2OC)o1 [Compound 397] | 2.66 | 279 | 327 | – | –
CCC(=O)CCCCC[C@H](NC(=O)C1=NOC2(CCN(C(=O)OC)CC2)C1)c1ncc(-c2ccccc2)[nH]1 [Compound 381] | 26.1 | 2740 | 6410 | – | –
CCC(=O)CCCCC[C@H](NC(=O)[C@H]1CC[C@@]2(CC1)OC(=O)c1cccnc12)c1nnc(-c2cc3ccccc3nc2OC)o1 [Compound 366] | 37.3 | 1500 | 5360 | – | –
CCC(=O)CCCCC[C@H](NC(=O)CCN1C(=O)C(CC)=NC12CCOCC2)c1ncc(-c2ccccc2)[nH]1 [Compound 384] | 12.6 | 2220 | 2410 | – | –
CCC(=O)CCCCC[C@H](NC(=O)C1=NOC2(CCN(S(C)(=O)=O)CC2)C1)c1nnc(-c2cc3ccccc3nc2OC)o1 [Compound 371] | – | 5000 | 6040 | – | –
CCCC(=O)CCCCC[C@H](N)c1ncc(-c2cc3ccc(C)nc3cc2OC)[nH]1 [Compound A30] | 95.6 | 1490 | 5610 | – | –
CCCC(=O)CCCCC[C@H](NC(=O)[C@H]1CC12CCN(CC1CC1)CC2)c1ncc(-c2cc3ccc(C)nc3cc2OC)[nH]1 [Compound 416] | 1.11 | 11 | 15 | – | –
CCC(=O)CCCCC[C@H](NCC1CC1)c1ncc(-c2cc3ccc(C)nc3cc2OC)[nH]1 [Compound 398, (S)-9-((cyclopropylmethyl)amino)-9-(5-(7-methoxy-2-methylquinolin-6-yl)-1H-imidazol-2-yl)nonan-3-one] | 241 | 5500 | 10200 | – | –
CCC(=O)CCCCC[C@H](NC(=O)[C@H]1CC[C@@]2(CC1)OC(=O)c1cnccc12)c1ncc(-c2ccccc2)[nH]1 [Compound 373] | 18.8 | 1650 | 5340 | – | –
CCC(=O)CCCCC[C@H](NCc1ccncc1)c1ncc(-c2cc3ccc(C)nc3cc2OC)[nH]1 [Compound 404] | 501 | > 40000 | > 40000 | – | –
CCC(=O)CCCCC[C@H](NC(=O)[C@H]1CC[C@@]2(CC1)OC(=O)c1ccncc12)c1ncc(-c2ccccc2)[nH]1 [Compound 372] | 14.1 | 2650 | 5250 | – | –
CCC(=O)CCCCC[C@H](NC(=O)C1=NOC2(CCN(C)CC2)C1)c1ncc(-c2ccc(-c3ccccn3)cc2OC)o1 [Compound 391] | 18.6 | 460 | 541 | – | –
CCC(=O)CCCCC[C@H](NCC1CN(C)C1)c1ncc(-c2cc3ccc(C)nc3cc2OC)o1 [Compound 401, (9S)-9-[5-(7-methoxy-2-methylquinolin-6-yl)-1,3-oxazol-2-yl]-9-{[(1-methylazetidin-3-yl)methyl]amino}nonan-3-one] | 51.3 | 1840 | 2210 | – | –
